≈ marks a conversion by molar mass, not a printed value.
Legend:
Assay type in all cases: functional
[1] = test system: Listeria monocytogenes; test: Antibacterial activity against Listeria monocytogenes ATCC 15313 after 24 hrs by twofold serial dilution method
[2] = test system: Proteus vulgaris; test: Antibacterial activity against Proteus vulgaris ATCC 8427 after 24 hrs by twofold serial dilution method
[3] = test system: Micrococcus luteus; test: Antibacterial activity against Micrococcus luteus La 2971 after 24 hrs by twofold serial dilution method
[4] = test system: Bacillus cereus; test: Antibacterial activity against Bacillus cereus ATCC 7064 after 24 hrs by twofold serial dilution method
[5] = test system: Mycolicibacterium smegmatis; test: Antibacterial activity against Mycobacterium smegmatis CCM 2067 after 24 hrs by twofold serial dilution method
[6] = test system: Pseudomonas aeruginosa; test: Antibacterial activity against Pseudomonas aeruginosa ATCC 27853 after 24 hrs by twofold serial dilution method
[7] = test system: Klebsiella pneumoniae; test: Antibacterial activity against Klebsiella pneumoniae UC57 after 24 hrs by twofold serial dilution method
[8] = test system: Escherichia coli; test: Antibacterial activity against Escherichia coli ATCC 11230 after 24 hrs by twofold serial dilution method
[9] = test system: Staphylococcus aureus; test: Antibacterial activity against Staphylococcus aureus ATCC 6538 after 24 hrs by twofold serial dilution method
[10] = test system: Escherichia coli; test: Antibacterial activity against Escherichia coli ATCC 11230 after 24 hrs by disk diffusion method
[11] = test system: Debaryomyces hansenii; test: Antifungal activity against Debaryomyces hansenii DSM 70238 after 72 hrs by disk diffusion method
[12] = test system: Staphylococcus aureus; test: Antibacterial activity against Staphylococcus aureus ATCC 6538 after 24 hrs by disk diffusion method
[13] = test system: Listeria monocytogenes; test: Antibacterial activity against Listeria monocytogenes ATCC 15313 after 24 hrs by disk diffusion method
[14] = test system: Hanseniaspora guilliermondii; test: Antifungal activity against Hanseniaspora guilliermondii DSM 3432 after 72 hrs by disk diffusion method
[15] = test system: Rhodotorula mucilaginosa; test: Antifungal activity against Rhodotorula rubra DSM 70403 after 48 hrs by twofold serial dilution method
[16] = test system: Candida albicans; test: Antifungal activity against Candida albicans ATCC 10231 after 72 hrs by disk diffusion method
[17] = test system: Kluyveromyces marxianus; test: Antifungal activity against Kluyveromyces fragilis NRRL 2415 after 48 hrs by twofold serial dilution method
[18] = test system: Micrococcus luteus; test: Antibacterial activity against Micrococcus luteus La 2971 after 24 hrs by disk diffusion method
[19] = test system: Hanseniaspora guilliermondii; test: Antifungal activity against Hanseniaspora guilliermondii DSM 3432 after 48 hrs by twofold serial dilution method
[20] = test system: Rhodotorula mucilaginosa; test: Antifungal activity against Rhodotorula rubra DSM 70403 after 72 hrs by disk diffusion method
[21] = test system: Bacillus cereus; test: Antibacterial activity against Bacillus cereus ATCC 7064 after 24 hrs by disk diffusion method
[22] = test system: Pseudomonas aeruginosa; test: Antibacterial activity against Pseudomonas aeruginosa ATCC 27853 after 24 hrs by disk diffusion method
[23] = test system: Mycolicibacterium smegmatis; test: Antibacterial activity against Mycobacterium smegmatis CCM 2067 after 24 hrs by disk diffusion method
[24] = test system: Proteus vulgaris; test: Antibacterial activity against Proteus vulgaris ATCC 8427 after 24 hrs by disk diffusion method
[25] = test system: Candida albicans; test: Antifungal activity against Candida albicans ATCC 10231 after 48 hrs by twofold serial dilution method
[26] = test system: Debaryomyces hansenii; test: Antifungal activity against Debaryomyces hansenii DSM 70238 after 48 hrs by twofold serial dilution method
[27] = test system: Klebsiella pneumoniae; test: Antibacterial activity against Klebsiella pneumoniae UC57 after 24 hrs by disk diffusion method
[28] = test system: Kluyveromyces marxianus; test: Antifungal activity against Kluyveromyces fragilis NRRL 2415 after 72 hrs by disk diffusion method
[29] = test system: Mycolicibacterium smegmatis; test: Antibacterial activity against Mycobacterium smegmatis CCM 2067 at 30 ug after 24 hrs by disk diffusion method; conditions: CCM 2067, 24 h, read-out: IZ
[30] = test system: Staphylococcus aureus; test: Antibacterial activity against Staphylococcus aureus ATCC 6538 at 30 ug after 24 hrs by disk diffusion method; conditions: ATCC 6538, 24 h, read-out: IZ
[31] = test system: Bacillus cereus; test: Antibacterial activity against Bacillus cereus ATCC 7064 at 30 ug after 24 hrs by disk diffusion method; conditions: ATCC 7064, 24 h, read-out: IZ
[32] = test system: Listeria monocytogenes; test: Antibacterial activity against Listeria monocytogenes ATCC 15313 at 30 ug after 24 hrs by disk diffusion method; conditions: ATCC 15313, 24 h, read-out: IZ
[33] = test system: Pseudomonas aeruginosa; test: Antibacterial activity against Pseudomonas aeruginosa ATCC 27853 at 30 ug after 24 hrs by disk diffusion method; conditions: ATCC 27853, 24 h, read-out: IZ
[34] = test system: Escherichia coli; test: Antibacterial activity against Escherichia coli ATCC 11230 at 30 ug after 24 hrs by disk diffusion method; conditions: ATCC 11230, 24 h, read-out: IZ
[35] = test system: Proteus vulgaris; test: Antibacterial activity against Proteus vulgaris ATCC 8427 at 30 ug after 24 hrs by disk diffusion method; conditions: ATCC 8427, 24 h, read-out: IZ
[36] = test system: Micrococcus luteus; test: Antibacterial activity against Micrococcus luteus La 2971 at 30 ug after 24 hrs by disk diffusion method; conditions: read-out: IZ
[37] = test system: Klebsiella pneumoniae; test: Antibacterial activity against Klebsiella pneumoniae UC57 at 30 ug after 24 hrs by disk diffusion method; conditions: read-out: IZ
[38] = test system: Rhodotorula mucilaginosa; test: Antifungal activity against Rhodotorula rubra DSM 70403 at 1 ug after 72 hrs by disk diffusion method
[39] = test system: Kluyveromyces marxianus; test: Antifungal activity against Kluyveromyces fragilis NRRL 2415 at 1 ug after 72 hrs by disk diffusion method
[40] = test system: Debaryomyces hansenii; test: Antifungal activity against Debaryomyces hansenii DSM 70238 at 1 ug after 72 hrs by disk diffusion method
[41] = test system: Hanseniaspora guilliermondii; test: Antifungal activity against Hanseniaspora guilliermondii DSM 3432 at 1 ug after 72 hrs by disk diffusion method

Row | Compound | MIC [3] | MIC [7] | inhibition zone (IZ) [10] | inhibition zone (IZ) [11] | inhibition zone (IZ) [12] | inhibition zone (IZ) [13] | inhibition zone (IZ) [14] | MIC ([1]; ATCC 15313, 24 h) | MIC ([2]; ATCC 8427, 24 h) | MIC ([15]; DSM 70403, 48 h) | inhibition zone (IZ) [16] | MIC ([4]; ATCC 7064, 24 h) | MIC ([17]; NRRL 2415, 48 h) | inhibition zone (IZ) [18] | MIC ([5]; CCM 2067, 24 h) | MIC ([6]; ATCC 27853, 24 h) | MIC ([19]; DSM 3432, 48 h) | inhibition zone (IZ) [20] | inhibition zone (IZ) [21] | inhibition zone (IZ) [22] | also measured
1 | GENTAMICIN | 6.25 µg/mL | 6.25 µg/mL | – | – | – | – | – | – | – | – | – | – | – | – | – | – | – | – | – | – | MIC [1]: 12.5 µg/mL; MIC [2]: 25 µg/mL; MIC [4]: 6.25 µg/mL; MIC [5]: 12.5 µg/mL; MIC [6]: 6.25 µg/mL; MIC [8]: 6.25 µg/mL; MIC [9]: 25 µg/mL
2 | O=C1CCSSCCC(=O)Nc2cccc(n2)NC(=O)CCSSCCC(=O)Nc2cccc(n2)N1 | 12.5 µg/mL (≈ 22.1 µM) | 6.25 µg/mL (≈ 11 µM) | 16 mm | 22 mm | 15 mm | 15 mm | 22 mm | 12.5 µg/mL (≈ 22.1 µM) | 25 µg/mL (≈ 44.1 µM) | 1.56 µg/mL (≈ 2.75 µM) | 22 mm | 12.5 µg/mL (≈ 22.1 µM) | 1.56 µg/mL (≈ 2.75 µM) | 15 mm | 25 µg/mL (≈ 44.1 µM) | 6.25 µg/mL (≈ 11 µM) | 1.56 µg/mL (≈ 2.75 µM) | 22 mm | 15 mm | 17 mm | inhibition zone (IZ) [23]: 10 mm; MIC ([8]; ATCC 11230, 24 h): 6.25 µg/mL (≈ 11 µM); inhibition zone (IZ) [24]: 11 mm; MIC ([25]; ATCC 10231, 48 h): 1.56 µg/mL (≈ 2.75 µM); MIC ([26]; DSM 70238, 48 h): 1.56 µg/mL (≈ 2.75 µM); inhibition zone (IZ) [27]: 17 mm; inhibition zone (IZ) [28]: 22 mm; MIC ([9]; ATCC 6538, 24 h): 6.25 µg/mL (≈ 11 µM)
3 | CN(C)[C@@H]1C(O)=C(C(N)=O)C(=O)[C@@]2(O)C(O)=C3C(=O)c4c(O)cccc4[C@@](C)(O)[C@H]3C[C@@H]12 [TETRACYCLINE] | – | – | – | – | – | – | – | – | – | – | – | – | – | – | – | – | – | – | – | – | zone of inhibition at 30 µg/disc [29]: 24 mm; zone of inhibition at 30 µg/disc [30]: 26 mm; zone of inhibition at 30 µg/disc [31]: 26 mm; zone of inhibition at 30 µg/disc [32]: 28 mm; zone of inhibition at 30 µg/disc [33]: 25 mm; zone of inhibition at 30 µg/disc [34]: 28 mm; zone of inhibition at 30 µg/disc [35]: 22 mm; zone of inhibition at 30 µg/disc [36]: 34 mm; zone of inhibition at 30 µg/disc [37]: 30 mm
4 | O=C1CSCC(=O)Nc2cccc(n2)NC(=O)CSCC(=O)Nc2cccc(n2)N1 | 12.5 µg/mL (≈ 28 µM) | 6.25 µg/mL (≈ 14 µM) | 10 mm | 18 mm | 14 mm | 12 mm | 20 mm | 12.5 µg/mL (≈ 28 µM) | 25 µg/mL (≈ 56 µM) | 6.25 µg/mL (≈ 14 µM) | 17 mm | 12.5 µg/mL (≈ 28 µM) | 3.12 µg/mL (≈ 7 µM) | 12 mm | 25 µg/mL (≈ 56 µM) | 6.25 µg/mL (≈ 14 µM) | 3.12 µg/mL (≈ 7 µM) | 15 mm | 12 mm | 16 mm | inhibition zone (IZ) [23]: 10 mm; MIC ([8]; ATCC 11230, 24 h): 25 µg/mL (≈ 56 µM); inhibition zone (IZ) [24]: 11 mm; MIC ([25]; ATCC 10231, 48 h): 6.25 µg/mL (≈ 14 µM); MIC ([26]; DSM 70238, 48 h): 3.12 µg/mL (≈ 7 µM); inhibition zone (IZ) [27]: 15 mm; inhibition zone (IZ) [28]: 20 mm; MIC ([9]; ATCC 6538, 24 h): 12.5 µg/mL (≈ 28 µM)
5 | NYSTATIN | – | – | – | – | – | – | – | – | – | – | – | – | – | – | – | – | – | – | – | – | inhibition zone (IZ) [38]: 20 mm; inhibition zone (IZ) [39]: 18 mm; inhibition zone (IZ) [40]: 16 mm; MIC [15]: 3.12 µg/mL; MIC [17]: 6.25 µg/mL; MIC [19]: 3.12 µg/mL; MIC [25]: 6.25 µg/mL; MIC [26]: 12.5 µg/mL; inhibition zone (IZ) [41]: 21 mm

Source: ChEMBL document CHEMBL1152842, “Synthesis, Raman, FT-IR, NMR spectroscopic data and antimicrobial activity of mixed aza-oxo-thia macrocyclic compounds” (2009)
